According to patent US20230279020A9, “CARM1 INHIBITORS AND USES THEREOF” (Epizyme, Inc., priority 2013, published 2023):

Molecular target: Human CARM1 (PRMT4) (Homo sapiens (Human), UniProt Q86X55)
Assay: CARM1 enzyme assay on peptide substrate (3H-SAM Flashplate)
Settings: Biochemical potencies, classification codes; read-out: Biochem IC50

Sequence of Human CARM1 (PRMT4) (Q86X55 other isoform, or with tags, fused parts or gaps isoform Q86X55-1): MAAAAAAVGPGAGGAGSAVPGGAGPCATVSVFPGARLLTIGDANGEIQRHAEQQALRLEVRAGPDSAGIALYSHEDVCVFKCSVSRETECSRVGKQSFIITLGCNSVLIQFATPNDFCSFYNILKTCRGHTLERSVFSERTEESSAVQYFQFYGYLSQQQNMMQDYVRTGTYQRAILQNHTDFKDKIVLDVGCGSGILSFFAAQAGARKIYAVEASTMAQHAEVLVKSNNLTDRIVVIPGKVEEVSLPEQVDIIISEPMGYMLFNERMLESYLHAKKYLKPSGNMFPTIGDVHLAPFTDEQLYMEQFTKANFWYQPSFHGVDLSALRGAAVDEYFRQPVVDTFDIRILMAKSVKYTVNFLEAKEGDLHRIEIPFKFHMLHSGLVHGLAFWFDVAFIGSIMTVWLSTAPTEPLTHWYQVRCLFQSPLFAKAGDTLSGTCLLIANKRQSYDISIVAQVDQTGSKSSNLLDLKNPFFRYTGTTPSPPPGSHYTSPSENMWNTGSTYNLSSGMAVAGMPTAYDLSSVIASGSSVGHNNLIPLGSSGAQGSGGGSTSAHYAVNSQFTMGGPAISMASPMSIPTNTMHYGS

| IC50 | Structure (SMILES) |
| --- | --- |
| < 100 nM | CNCC(O)COc1cccc(-c2nc(NC[C@H]3COCCN3C(=O)N(C)C)c(C)c(-c3c(C)noc3C)n2)c1 (some centres unmarked) [Example 258-1a] |
| < 100 nM | CNC[C@@H](O)COc1ccc(Cl)c(-c2nc(NC3CCN(C)CC3(F)F)c(C)c(-c3c(C)noc3C)n2)c1 (some centres unmarked) [Example 258-3] |
| < 100 nM | CNCC(O)COc1cccc(-c2nc(OCC3CCN(C(=O)OCc4ccccc4)CC3)c(C)c(-c3c(C)noc3C)n2)c1 (centres unmarked) [Example 259-1a] |
| < 100 nM | CNC[C@@H](O)COc1ccc(Cl)c(-c2nc(-c3c(C)noc3C)c(C)c(N3Cc4cnc(C5CC5)nc4C3)n2)c1 [Example 259-3] |
| < 100 nM | CNCC(O)COc1cccc(-c2nc(N[C@@H]3CCN(C4CC4)C[C@@H]3F)c(C)c(-c3c(C)noc3C)n2)c1 (some centres unmarked) [Example 260-1a] |
| < 100 nM | CNC[C@@H](O)COc1ccc(F)c(-c2nc(-c3c(C)noc3C)c(C)c(N3Cc4cncnc4C3)n2)c1 [Example 260-3] |
| < 100 nM | CNCC(O)COc1cccc(-c2nc(N[C@@H]3CCN(C4CC4)C[C@H]3F)c(C)c(-c3c(C)noc3C)n2)c1 (some centres unmarked) [Example 261-1a] |
| < 100 nM | CNC[C@@H](O)COc1ccc(Cl)c(-c2nc(-c3c(C)noc3C)c(F)c(N3CC4(CCOCC4)C3)n2)c1 [Example 261-3] |
| < 100 nM | CNCC(O)COc1cccc(-c2nc(NCC3CCN(C4COC4)CC3)c(C)c(-c3c(C)noc3C)n2)c1 (centres unmarked) [Example 262-1a] |
| < 100 nM | CNCC(O)COc1cccc(-c2nc(NC3CCN(C4COC4)CC3)c(C)c(-c3c(C)noc3C)n2)c1 (centres unmarked) [Example 263-1a] |
| < 100 nM | CNC[C@@H](O)COc1ccc(Cl)c(-c2nc(-c3c(C)noc3C)c(C)c(N3Cc4cnc(C(F)(F)F)nc4C3)n2)c1 [Example 263-3] |
| < 100 nM | CNCC(O)COc1cccc(-c2nc(NC3CN(C(=O)C4CC4)C3)c(C)c(-c3c(C)noc3C)n2)c1 (centres unmarked) [Example 264-1a] |
| < 100 nM | CNC[C@@H](O)COc1ccc(Cl)c(-c2nc(-c3c(C)noc3C)c(C)c(N3Cc4cnc(C(C)C)nc4C3)n2)c1 [Example 264-3] |
| < 100 nM | CNC[C@@H](O)COc1ccc(Cl)c(-c2nc(-c3c(C)noc3C)c(C)c(N3Cc4cnn(CC(F)(F)F)c4C3)n2)c1 [Example 265-3] |
| < 100 nM | CNC[C@@H](O)COc1ccc(F)c(-c2nc(-c3c(C)noc3C)c(C)c(N3Cc4cccc(F)c4C3)n2)c1 [Example 266-3] |
| < 100 nM | CNCC(O)COc1cccc(-c2nc(N[C@H]3COC(=O)C3)c(C)c(-c3c(C)noc3C)n2)c1 (some centres unmarked) [Example 267-1a] |
| < 100 nM | CNC[C@@H](O)COc1ccc(Cl)c(-c2nc(-c3c(C)noc3C)c(C)c(N3Cc4cccc(F)c4C3)n2)c1 [Example 267-3] |
| < 100 nM | CNCC(O)COc1cccc(-c2nc(N[C@@H]3COC(=O)C3)c(C)c(-c3c(C)noc3C)n2)c1 (some centres unmarked) [Example 268-1a] |
| < 100 nM | CNC[C@@H](O)COc1ccc(Cl)c(-c2nc(-c3c(C)noc3C)c(C)c(C3CCOCC3)n2)c1 [Example 268-3] |
| < 100 nM | CNCC(O)COc1cccc(-c2nc(NC3CCOCC3C)c(C)c(-c3c(C)noc3C)n2)c1 (centres unmarked) [Example 269-1a] |
| < 100 nM | CNC[C@@H](O)COc1ccc(F)c(-c2nc(-c3c(C)noc3C)c(C)c(N3CC4(CCCCO4)C3)n2)c1 [Example 269-3] |
| < 100 nM | CNCC(O)COc1ccc(Cl)c(-c2nc(NC3CCN(C(=O)OC)CC3)c(C)c(-c3c(C)noc3C)n2)c1 (centres unmarked) [Example 270-1a] |
| < 100 nM | CNC[C@@H](O)COc1ccc(Cl)c(-c2nc(-c3c(C)noc3C)c(C)c(N3Cc4cnn(C5CC5)c4C3)n2)c1 [Example 270-3] |
| < 100 nM | CNCC(O)COc1cccc(-c2nc(N[C@@H]3CCOC[C@@H]3F)c(C)c(-c3c(C)noc3C)n2)c1 (some centres unmarked) [Example 271-1a] |

| Structure (SMILES) | IC50 |
| --- | --- |
| CNCC(O)COc1cccc(-c2nc(N[C@@H]3C[C@H]4CC[C@@H](C3)N4C(=O)OC)c(C)c(-c3c(C)noc3C)n2)c1 (some centres unmarked) [Example 265-1a] | < 100 nM |
| CNCC(O)COc1cccc(-c2nc(N[C@H]3C[C@H]4CC[C@@H](C3)N4C(=O)OC)c(C)c(-c3c(C)noc3C)n2)c1 (some centres unmarked) [Example 266-1a] | < 100 nM |
